Reference: article PMC11748363, “Antimicrobial and Antiproliferative Properties of 2‐Phenyl‐N‐(Pyridin‐2‐yl)acetamides” (Chemical Biology & Drug Design, 2025)
Converted amounts (≈) assume the structure as drawn. Like-named read-outs stand apart in the source and are kept apart here.

Legend:
[1] = tested on: Mycobacterium tuberculosis H37Ra; set-up: method as in Nawrot et al. 2021; settings: previously published N‐pyridinyl benzamides; ref Nawrot et al. 2021; cited from earlier work
[2] = tested on: Aspergillus flavus CCM 8363; assay: Antifungal microdilution broth MIC, AFla
[3] = tested on: Pseudomonas aeruginosa CCM 3955, ATCC 27853; assay: Antibacterial microdilution broth MIC, PA; format: cell-based
[4] = tested on: Mycolicibacterium aurum DSM 43999; assay: Antimycobacterial microdilution broth MIC (resazurin), M. aurum; format: cell-based; settings: DSM43999, read-out: MIC M. aurum
[5] = tested on: Trichophyton interdigitale CCM 8377, ATCC 9533; assay: Antifungal microdilution broth MIC, TI; settings: Trichophyton interdigitale
[6] = tested on: Staphylococcus epidermidis CCM 4418, ATCC 12228; assay: Antibacterial microdilution broth MIC, SE; format: cell-based
[7] = tested on: Mycolicibacterium smegmatis DSM 43465; assay: Antimycobacterial microdilution broth MIC (resazurin), M. smegmatis; format: cell-based; settings: DSM43465, read-out: MIC M. smegmatis
[8] = tested on: Staphylococcus aureus subsp. aureus CCM 4750, ATCC 43300 (MRSA); assay: Antibacterial microdilution broth MIC, MRSA; format: cell-based; settings: Staphylococcus aureus
[9] = tested on: Enterococcus faecalis CCM 4224, ATCC 29212; assay: Antibacterial microdilution broth MIC, EF; format: cell-based
[10] = tested on: Candida albicans CCM 8320, ATCC 24433; assay: Antifungal microdilution broth MIC, CA
[11] = tested on: Lichtheimia corymbifera CCM 8077; assay: Antifungal microdilution broth MIC, LC
[12] = tested on: Aspergillus fumigatus ATCC 204305; assay: Antifungal microdilution broth MIC, AF
[13] = tested on: Candida tropicalis CCM 8264, ATCC 750; assay: Antifungal microdilution broth MIC, CT
[14] = tested on: Acinetobacter baumannii DSM 30007, ATCC 19606; assay: Antibacterial microdilution broth MIC, ACI; format: cell-based
[15] = tested on: Candida parapsilosis CCM 8260, ATCC 22019; assay: Antifungal microdilution broth MIC, CP; settings: Lodderomyces parapsilosis
[16] = tested on: Mycobacterium tuberculosis H37Ra; assay: Antimycobacterial microdilution broth MIC (resazurin), Mtb H37Ra; format: cell-based; settings: for MIC: Mycobacterium tuberculosis, H37RA, read-out: MIC Mtb H37Ra
[17] = tested on: Candida krusei CCM 8271, ATCC 6258; assay: Antifungal microdilution broth MIC, CK; settings: Pichia kudriavzevii
[18] = tested on: HepG2 cell line; assay: Cytotoxicity CellTiter 96, HepG2; format: cell-based, human; settings: Homo sapiens, HepG2, 24 h, 24 h incubation; ^c compound precipitated in the testing medium; ^d over the limit of tested concentrations
[19] = tested on: Staphylococcus aureus CCM 4223, ATCC 29213; assay: Antibacterial microdilution broth MIC, SA; format: cell-based; settings: Staphylococcus aureus
[20] = tested on: Escherichia coli CCM 3954, ATCC 25922; assay: Antibacterial microdilution broth MIC, EC; format: cell-based
[21] = tested on: Klebsiella pneumoniae CCM 4415, ATCC 10031; assay: Antibacterial microdilution broth MIC, KP
[22] = CCM8363, 24 h, read-out: MIC AFla 24h
[23] = CCM8363, 48 h, read-out: MIC AFla 48h
[24] = CCM8077, 24 h, read-out: MIC LC 24h
[25] = CCM8077, 48 h, read-out: MIC LC 48h
[26] = ATCC204305, 24 h, read-out: MIC AF 24h
[27] = ATCC204305, 48 h, read-out: MIC AF 48h

O=C(Nc1ccc(Cl)cn1)c1ccc(Cl)cc1 [C00003 R1=5-Cl,R2=4-Cl]
MIC Mtb H37Ra (μg/mL), previously published compounds [1]: > 500 µg/mL

O=C(Nc1ccc(Cl)cn1)c1cccc(Cl)c1 [C00003 R1=5-Cl,R2=3-Cl]
MIC Mtb H37Ra (μg/mL), previously published compounds [1]: 31.25 µg/mL (≈ 117 µM)

COc1ccccc1C(=O)Nc1ccc(Cl)cn1 [C00003 R1=5-Cl,R2=2-OMe]
MIC Mtb H37Ra (μg/mL), previously published compounds [1]: 31.25 µg/mL (≈ 119 µM)

COc1ccc(C(=O)Nc2cccc(Cl)n2)cc1 [C00003 R1=6-Cl,R2=4-OMe]
MIC Mtb H37Ra (μg/mL), previously published compounds [1]: 15.625 µg/mL (≈ 59.5 µM)

O=C(Nc1ccccn1)c1ccc(Cl)cc1 [C00003 R1=H,R2=4-Cl]
MIC Mtb H37Ra (μg/mL), previously published compounds [1]: 62.5 µg/mL (≈ 269 µM)

COc1cccc(C(=O)Nc2ccccn2)c1 [C00003 R1=H,R2=3-OMe]
MIC Mtb H37Ra (μg/mL), previously published compounds [1]: 62.5 µg/mL (≈ 274 µM)

O=C(Nc1cccc(Cl)n1)c1ccc(Cl)cc1 [C00003 R1=6-Cl,R2=4-Cl]
MIC Mtb H37Ra (μg/mL), previously published compounds [1]: > 500 µg/mL

O=C(Nc1cccc(Cl)n1)c1ccccc1Cl [C00003 R1=6-Cl,R2=2-Cl]
MIC Mtb H37Ra (μg/mL), previously published compounds [1]: 62.5 µg/mL (≈ 234 µM)

O=C(Nc1cccc(Cl)n1)c1cccc(C(F)(F)F)c1 [C00003 R1=6-Cl,R2=3-CF3]
MIC Mtb H37Ra (μg/mL), previously published compounds [1]: 7.81 µg/mL (≈ 26 µM)

COc1ccc(C(=O)Nc2ccccn2)cc1 [C00003 R1=H,R2=4-OMe]
MIC Mtb H37Ra (μg/mL), previously published compounds [1]: 62.5 µg/mL (≈ 274 µM)

O=C(Nc1ccc(Cl)cn1)c1cccc(C(F)(F)F)c1 [C00003 R1=5-Cl,R2=3-CF3]
MIC Mtb H37Ra (μg/mL), previously published compounds [1]: 7.81 µg/mL (≈ 26 µM)

COc1ccc(C(=O)Nc2ccc(Cl)cn2)cc1 [C00003 R1=5-Cl,R2=4-OMe]
MIC Mtb H37Ra (μg/mL), previously published compounds [1]: 62.5 µg/mL (≈ 238 µM)

O=C(Nc1ccccn1)c1ccccc1 [C00003 R1=H,R2=H]
MIC Mtb H37Ra (μg/mL), previously published compounds [1]: 250 µg/mL (≈ 1260 µM)

O=C(Nc1ccc(Cl)cn1)c1ccccc1 [C00003 R1=5-Cl,R2=H]
MIC Mtb H37Ra (μg/mL), previously published compounds [1]: > 500 µg/mL

COc1cccc(C(=O)Nc2ccc(Cl)cn2)c1 [C00003 R1=5-Cl,R2=3-OMe]
MIC Mtb H37Ra (μg/mL), previously published compounds [1]: 62.5 µg/mL (≈ 238 µM)

O=C(Nc1cccc(Cl)n1)c1cccc(Cl)c1 [C00003 R1=6-Cl,R2=3-Cl]
MIC Mtb H37Ra (μg/mL), previously published compounds [1]: 15.625 µg/mL (≈ 58.5 µM)

COc1ccccc1C(=O)Nc1cccc(Cl)n1 [C00003 R1=6-Cl,R2=2-OMe]
MIC Mtb H37Ra (μg/mL), previously published compounds [1]: > 500 µg/mL

O=C(Nc1cccc(Cl)n1)c1ccccc1 [C00003 R1=6-Cl,R2=H]
MIC Mtb H37Ra (μg/mL), previously published compounds [1]: 125 µg/mL (≈ 537 µM)

COc1cccc(C(=O)Nc2cccc(Cl)n2)c1 [C00003 R1=6-Cl,R2=3-OMe]
MIC Mtb H37Ra (μg/mL), previously published compounds [1]: 31.25 µg/mL (≈ 119 µM)

O=C(Nc1ccccn1)c1cccc(C(F)(F)F)c1 [C00003 R1=H,R2=3-CF3]
MIC Mtb H37Ra (μg/mL), previously published compounds [1]: 31.25 µg/mL (≈ 117 µM)

COc1ccccc1C(=O)Nc1ccccn1 [C00003 R1=H,R2=2-OMe]
MIC Mtb H37Ra (μg/mL), previously published compounds [1]: 31.25 µg/mL (≈ 137 µM)

O=C(Nc1ccc(Cl)cn1)c1ccccc1Cl [C00003 R1=5-Cl,R2=2-Cl]
MIC Mtb H37Ra (μg/mL), previously published compounds [1]: > 500 µg/mL

O=C(Cc1ccc(C(F)(F)F)cc1)Nc1ccccn1 [Compound 28]
MIC [2, 22]: > 500 µM
MIC [2, 23]: > 500 µM
MIC ([3]; 24 h, read-out: MIC PA 24h): > 500 µM
MIC ([3]; 48 h, read-out: MIC PA 48h): > 500 µM
MIC [4]: > 500 µg/mL
MIC ([5]; 72 h, read-out: MIC TI 72h): > 500 µM
MIC ([5]; 120 h, read-out: MIC TI 120h): > 500 µM
MIC ([6]; 24 h, read-out: MIC SE 24h): > 500 µM
MIC ([6]; 48 h, read-out: MIC SE 48h): > 500 µM
MIC [7]: > 500 µg/mL
MIC ([8]; 24 h, read-out: MIC MRSA 24h): > 500 µM
MIC ([8]; 48 h, read-out: MIC MRSA 48h): > 500 µM
MIC ([9]; 24 h, read-out: MIC EF 24h): > 500 µM
MIC ([9]; 48 h, read-out: MIC EF 48h): > 500 µM
MIC ([10]; 24 h, read-out: MIC CA 24h): > 500 µM
MIC ([10]; 48 h, read-out: MIC CA 48h): > 500 µM
MIC [11, 24]: > 500 µM
MIC [11, 25]: > 500 µM
MIC [12, 26]: > 500 µM
MIC [12, 27]: > 500 µM
MIC ([13]; 24 h, read-out: MIC CT 24h): > 500 µM
MIC ([13]; 48 h, read-out: MIC CT 48h): > 500 µM
MIC ([14]; 24 h, read-out: MIC ACI 24h): > 500 µM
MIC ([14]; 48 h, read-out: MIC ACI 48h): > 500 µM
MIC ([15]; 24 h, read-out: MIC CP 24h): > 500 µM
MIC ([15]; 48 h, read-out: MIC CP 48h): > 500 µM
MIC ([16]; Calculated from MIC (μg/mL)): 112 µM
MIC [16]: 31.2 µg/mL
SI (selectivity index) ([16]; SI = HepG2 IC50 (μM)/MIC MtbH37Ra (μM), calculated for compounds with MIC ≤ 31.25 μg/mL): 3.7
MIC ([17]; 24 h, read-out: MIC CK 24h): > 500 µM
MIC ([17]; 48 h, read-out: MIC CK 48h): > 500 µM
IC50 [18]: 408 µM
MIC ([19]; 24 h, read-out: MIC SA 24h): > 500 µM
MIC ([19]; 48 h, read-out: MIC SA 48h): > 500 µM
MIC ([20]; 24 h, read-out: MIC EC 24h): > 500 µM
MIC ([20]; 48 h, read-out: MIC EC 48h): > 500 µM
MIC KP 24h [21]: > 500 µM
MIC KP 48h [21]: > 500 µM

COc1ccc(CC(=O)Nc2ccccn2)cc1 [Compound 10, 2-(4-methoxyphenyl)-N-(pyridin-2-yl)acetamide]
MIC [2, 22]: > 500 µM
MIC [2, 23]: > 500 µM
MIC ([3]; 24 h, read-out: MIC PA 24h): > 500 µM
MIC ([3]; 48 h, read-out: MIC PA 48h): > 500 µM
MIC [4]: 250 µg/mL (≈ 1030 µM)
MIC ([5]; 72 h, read-out: MIC TI 72h): 500 µM (≈ 121 µg/mL)
MIC ([5]; 120 h, read-out: MIC TI 120h): 500 µM (≈ 121 µg/mL)
MIC ([6]; 24 h, read-out: MIC SE 24h): 500 µM (≈ 121 µg/mL)
MIC ([6]; 48 h, read-out: MIC SE 48h): 500 µM (≈ 121 µg/mL)
MIC [7]: 62.5 µg/mL (≈ 258 µM)
MIC ([8]; 24 h, read-out: MIC MRSA 24h): > 500 µM
MIC ([8]; 48 h, read-out: MIC MRSA 48h): > 500 µM
MIC ([9]; 24 h, read-out: MIC EF 24h): > 500 µM
MIC ([9]; 48 h, read-out: MIC EF 48h): > 500 µM
MIC ([10]; 24 h, read-out: MIC CA 24h): > 500 µM
MIC ([10]; 48 h, read-out: MIC CA 48h): > 500 µM
MIC [11, 24]: > 500 µM
MIC [11, 25]: > 500 µM
MIC [12, 26]: > 500 µM
MIC [12, 27]: > 500 µM
MIC ([13]; 24 h, read-out: MIC CT 24h): > 500 µM
MIC ([13]; 48 h, read-out: MIC CT 48h): > 500 µM
MIC ([14]; 24 h, read-out: MIC ACI 24h): > 500 µM
MIC ([14]; 48 h, read-out: MIC ACI 48h): > 500 µM
MIC ([15]; 24 h, read-out: MIC CP 24h): > 500 µM
MIC ([15]; 48 h, read-out: MIC CP 48h): > 500 µM
MIC ([16]; Calculated from MIC (μg/mL)): 516 µM
MIC [16]: 125 µg/mL
MIC ([17]; 24 h, read-out: MIC CK 24h): 500 µM (≈ 121 µg/mL)
MIC ([17]; 48 h, read-out: MIC CK 48h): 500 µM (≈ 121 µg/mL)
IC50 [18]: > 1000 µM
MIC ([19]; 24 h, read-out: MIC SA 24h): > 500 µM
MIC ([19]; 48 h, read-out: MIC SA 48h): > 500 µM
MIC ([20]; 24 h, read-out: MIC EC 24h): > 500 µM
MIC ([20]; 48 h, read-out: MIC EC 48h): > 500 µM
MIC KP 24h [21]: > 500 µM
MIC KP 48h [21]: > 500 µM

O=C(Nc1ccccn1)c1cccc(Cl)c1 [C00003 R1=H,R2=3-Cl]
MIC Mtb H37Ra (μg/mL), previously published compounds [1]: 62.5 µg/mL (≈ 269 µM)

O=C(Nc1ccccn1)c1ccccc1Cl [C00003 R1=H,R2=2-Cl]
MIC Mtb H37Ra (μg/mL), previously published compounds [1]: > 500 µg/mL
